Test results reported in patent US20250002974A1, “PROTECTING FULLY FUNCTIONAL NUCLEOTIDES FROM DEGRADATION” (Illumina, Inc., priority 2023, published 2025).
Each block holds one compound with its values, some of them ahead of it.

Experiments:
[1] = lyophilized ffN cakes with 30 mM cationic additive staged at 60° C. for 3 days, diphosphate by HPLC; assay type: physicochemical; conditions: 30 mM additive, 60° C. 3 days
Method: FIG. 12 provides data showing the percent diphosphate ffC detected via HLPC after staging for 60° C. for 3 days (3D) in the presence of 30 mM imidazolium additive (lyophilized cakes; n=2; CTRL=control sample with no additive).
FIG. 13 provides data showing the percent diphosphate ffC detected via HLPC after staging for 60° C. for 3 days (3D) in the presence of 30 mM pyridinium additives (lyophilized cakes; n=2; CTRL=control with no additive).
FIG. 14 provides data showing the percent diphosphate ffC detected via HLPC after staging for 60° C. for 3 days (3D) in the presence of 30 mM quaternary additives (lyophilized cakes; n=2; CTRL=control with no additive).
The efficacies of the other cationic substrates were also tested. This was performed using lyophilized ffN cake samples that were formulated with and without said additives, and by staging at an arbitrarily selected stress condition of 60° C. for a period of 3 days.

[2] = ffNs stored with TBMACL for 35 days at 35° C. or 45° C., diphosphate production; assay type: physicochemical
Method: TBMACL was tested to determine if it provided protection to the triphosphate of ffNs as heat stress increased. ffNs were stored with TBMACL for 35 days. In one of the storage conditions, the temperature was 35° C. and in the other storage condition, the temperature was 45° C. […] At 35° C. for 35 days TBMACL caused a 10% reduction in diphosphate production. This can be compared to 45° C. for 35 days where TBMACL caused a 17% reduction in diphosphate production.

[3] = stability of ffNs in dry state (TBMACL) or liquid state (CHAPS); assay type: physicochemical
Description: FIG. 24 provides data showing that addition of the cationic compound Tributylmethylammonium chloride (TBMACL) to ffNs in a dry state increases stability of triphosphate on the ffNs.
FIG. 25 provides data showing that the addition of CHAPS as well as CHAPS and TBMACL to ffNs in a liquid state increases the stability of intact ffNs.

Arthrobacter russicus = assay: bacterial growth in incorporation mix with TBMACL titration, plating for CFU/ml; assay type: cell-based
Method: To confirm the biocidal effect of TBMACl within liquid sequencing reagents, a titration of TBMACL from 9 mM to 90 mM in incorporation mix was prepared. These experiments were carried out with the omission of polymerase and ffNs in the formulation, as they were not required for the further analysis. On day 0, samples were inoculated with 3×10^6 CFU/ml of the bacteria Arthrobacter russicus. The samples were staged at 12° C. for 0, 14 and 30 days, followed by plating to determine CFU/ml. FIGS. 26-27 provide data showing use of a bulky cationic compound to inhibit bacterial growth. More specifically, FIG. 26 illustrates A. russicus growth in a titration of TBMACL over 30 days at 12° C.; the data shown is on a linear Y axis. FIG. 27 illustrates the same data, with a logarithmic scale Y axis. It may be understood from FIGS. 26-27 that the greater the concentration of TBMACL, the greater the inhibition of bacterial growth. […] In the absence of TBMACL, the CFU/ml increase by about 1.8-fold over 30 days. […] The sample with 90 mM TBMACL appeared to kill essentially all bacteria by day 14, and all bacteria appeared to remain dead at day 30.

[4] = ffN stability staged with surfactants in solution, 45° C. 7 days; assay type: physicochemical; conditions: 45° C. for 7 days, solution format
Method: Each of the surfactants was tested at two different concentrations, 0.5% and 2%.

[5] = ffNs stored with CHAPS at 45° C. for 7 or 21 days, percent peak area retention; assay type: physicochemical
Method: CHAPS was tested to determine if it prevented degradation of ffNs as the level of heat stress increased. In one of the reaction conditions ffNs were stored with CHAPS for 7 days at 45° C., and the other reaction condition ffNs were stored with CHAPs for 21 days at 45° C.

[6] = ffN stress test with or without 10 mM DADMAC, purity by HPLC peak area percent; assay type: physicochemical
Method: DADMAC (diallyldimethylammonium chloride): 100 μM ffNs were stressed in the presence of 10 mM DADMAC (FIG. 19) in 15 mM 3-(N-morpholino)propanesulfonic acid (MOPS) buffer and 5× glycine buffer (250 mM glycine pH 9.9, 250 mM NaCl, 5 mM ethylediaminetetraacetic acid (EDTA)). Each type of ffNs were tested: ffA, ffC, ffT, and ffG.
The samples were staged for 2 days at 40° C. in the glycine buffer, 2 days at 65° C. and 7 days at 4° C. in the MOPS buffer. DADMAC was tested to see if it could be added to the incorporation mix or ffN mixtures without causing any negative interactions with ffNs.

[7] = 1 to 40 mM TBACL; 45° C. 7 days; solution format
Description: As such, even higher concentrations of cations were not pursued.

reduction in diphosphate ffN formed vs control without additive [1]: approximately 17%
Structure (SMILES): CCCC[n+]1ccccc1.[Br-] [BPB, 1-butylpyridinium bromide]

reduction in diphosphate ffN formed vs control without additive [1]: ≤ 23% | reduction in diphosphate production ([2]; 35° C. for 35 days): 10% | reduction in diphosphate production ([2]; 45° C. for 35 days): 17%
Structure (SMILES): CCCC[N+](C)(CCCC)CCCC.[Cl-] [TBMACL, tributylmethylammonium chloride]
stability of triphosphate species of ffNs ([3]; ffNs in a dry state): increased stability of the trisphosphate species | effect on bioburden load (CFU/ml) (Arthrobacter russicus; 9 mM TBMACL, 30 days at 12° C.): approximately static effect | reduction of CFU/ml (Arthrobacter russicus; 22.5 mM TBMACL, 30 days at 12° C.): 6 fold | reduction of CFU/ml (Arthrobacter russicus; 45 mM TBMACL, 30 days at 12° C.): 8.6 fold | reduction of CFU/ml (Arthrobacter russicus; 90 mM TBMACL, 30 days at 12° C.): about 78,000 fold | biocidal effect on bacterial growth (Arthrobacter russicus; titration 9 mM to 90 mM in incorporation mix): dose-dependent biocidal effect

Structure (SMILES): C[C@H](CCC(=O)NCCC[N+](C)(C)CCCS(=O)(=O)[O-])[C@H]1CC[C@H]2[C@@H]3[C@H](O)C[C@@H]4C[C@H](O)CC[C@]4(C)[C@H]3C[C@H](O)[C@]12C [CHAPS, 3-[(3-cholamidopropyl)dimethylammonio]-1-propanesulfonate]
stability of triphosphate species of ffNs ([3]; ffNs in a liquid state): increased the stability of trisphosphate species | increase in ffN retention against the control sample [4]: ~40% | improvement in percent peak area retention ([5]; 7 days at 45° C.): 27% | improvement in percent PA retention ([5]; 21 days at 45° C.): 113%

Structure (SMILES): C=CC[N+](C)(C)CC=C.[Cl-] [DADMAC, diallyldimethylammonium chloride]
effect of DADMAC on ffN purity and diphosphate ([6]; high temperatures, all 4 ffNs): higher % ffN purity as compared to control and lower levels of diphosphate | effect of DADMAC on ffNs ([6]; milder stress conditions): no negative effect

Structure (SMILES): CCCC[N+](CCCC)(CCCC)CCCC.[Cl-] [TBACL, tetrabutylammonium chloride]
dephosphorylation (percent diphosphate ffC) [7]: reduced dephosphorylation

Structure (SMILES): CC[n+]1ccc(C(=O)OC)cc1.[I-] [EMPI, 1-ethyl-4-(methoxycarbonyl)pyridinium iodide]
effect on triphosphate stability / diphosphate formation [1]: negatively impacted triphosphate stability

Structure (SMILES): Cl.N [ACL, ammonium chloride]
effect on triphosphate stability / diphosphate formation [1]: higher level of diphosphate formation
